Earlier results on three compounds are cited in patent US7879374B2, “Composition including superoxide dismutase and prickly-pear cactus for minimizing and preventing hangovers” (priority 2005, dated 2011).

For data set [1] the following is noted: rat, in vivo, po.
The test system of data set [2] is hepatic metabolizing enzymes for lipids and alcohol.
The conditions of data set [3]: by speeding the use of fat during exercise.
The conditions of data set [4]: recent study of one-hundred twenty young females.
Setting [5] is: liver of rats given sesamin vs vehicle.

Take `c1cc2c(cc1[C@H]1OC[C@H]3[C@@H]1CO[C@@H]3c1ccc3c(c1)OCO3)OCO2` [Sesamin]: the “dose of sesamin detected in bile as glucuronides of catechol metabolites” value in data set [1] is on record as “Over 40 % of the dose”. In data set [2] (setting [5]), the “gene expression levels of the late stage enzymes of beta-oxidation (trifunctional enzyme, acyl-CoA oxidase, bifunctional enzyme, 3-ketoacyl-CoA thiolase)” value was “significantly increased”; the “gene expression of alcohol dehydrogenase” value is “not changed”; the “gene expression of aldehyde dehydrogenase” value is reported as “about 3 fold”; the “gene expression of liver catalase” value is on record as “not changed”. In addition, the “transcription of the genes encoding the enzymes for fatty acid synthesis” value in data set [2] (setting [5]) is listed as “decreased”. In addition, in data set [2] (rat, in vivo), the “gene expression of CYP2E1” value is on record as “not changed”.
Take `Cn1c(=O)c2c(ncn2C)n(C)c1=O` [Caffeine]: the increase in endurance result in data set [3] is “about fifteen”.
For `Cc1ncc(C[n+]2csc(CCO)c2C)c(N)n1` [Thiamin], the “effects on mood and cognitive functioning” value in data set [4] is recorded as “positive effects”.
